Numbered stars: 1 amine (or outer) side, 2 acyl side, 3 side chain; on linkers, the order of the positions; unused ones are H or OH. Bridge positions count the residues as written; N and C are the ends. Square brackets hold non-standard residues; d marks the D form. Peptide text beside a SMILES is read from it. TATA = O=C(CC[*:1])N1CN(C(=O)CC[*:2])CN(C(=O)CC[*:3])C1; X1 = C(c1nc(C[*:2])nc(C[*:3])n1)[*:1]; Cba = N[C@@H](CC1CCC1)C(=O)O; Dap = NC[C@H](N)C(=O)O
Biological target: T1, Fc-tagged human NKp46 (Homo sapiens, UniProt O76036)
T1 construct: purchased ACROBiosystems NC1-H5257
Assay: NKp46 SPR assay (Method 1 and/or Method 2)
Assay type: binding
Details: SPR Method 1 and/or Method 2, Table 3B
Outline: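 Method 1: biotinylated Avi-tag NKp46-Fc on streptavidin chip, peptides to 100-5000 nM top in PBS/0.05% Tween 20, 0.5% DMSO; 1:1 kinetic fit with mass transport. Method 2: NKp46-Fc captured by anti-Fc, PBS-P+ 2% DMSO; steady-state or kinetic 1:1 fit. Both 25° C, 50 μl/min, 60 s association.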

T1 sequence (O76036 22-304): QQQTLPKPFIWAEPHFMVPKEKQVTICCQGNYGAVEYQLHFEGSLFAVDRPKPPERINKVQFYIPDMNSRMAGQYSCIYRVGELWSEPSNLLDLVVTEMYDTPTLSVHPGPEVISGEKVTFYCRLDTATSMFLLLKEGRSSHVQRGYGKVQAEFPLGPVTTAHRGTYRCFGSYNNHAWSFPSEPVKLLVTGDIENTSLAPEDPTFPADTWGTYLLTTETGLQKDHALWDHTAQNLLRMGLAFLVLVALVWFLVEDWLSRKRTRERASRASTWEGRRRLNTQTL

| Compound | Kd [nM] |
| --- | --- |
| CC(C)C[C@@H]1NC(=O)[C@H](Cc2ccc(O)cc2)NC(=O)[C@H](CC(=O)O)NC(=O)[C@@H]2CCCN2C(=O)[C@H](CC2CCC2)NC(=O)[C@H](Cc2ccc(O)cc2)NC(=O)[C@@H](NC(=O)[C@H](C)N)CSCCC(=O)N2CN3CN(C2)C(=O)CCSC[C@H](NC1=O)C(=O)N[C@H](C)C(=O)N[C@@H](CC(=O)O)C(=O)N[C@@H](CCC(=O)O)C(=O)N[C@@H](Cc1ccc(O)cc1)C(=O)N[C@H](C(=O)N[C@@H](C)C(N)=O)CSCCC3=O [BCY16132, A-(SEQ ID NO: 40)-A] (H-ACY[Cba]PDYLC[dA]DEYCA-NH2; linker 2-9-14 via TATA; N-terminus assumed) | 3.9 |
| CC(C)C[C@@H]1NC(=O)[C@@H](NC(=O)[C@H](C)N)CSCCC(=O)N2CN3CN(C2)C(=O)CCSC[C@H](NC(=O)[C@H](Cc2c[nH]cn2)NC(=O)[C@H](CC(=O)O)NC(=O)[C@H](Cc2c[nH]cn2)NC(=O)[C@H](CC(C)C)NC1=O)C(=O)N1CCC[C@H]1C(=O)N[C@@H](CC(N)=O)C(=O)N[C@@H]([C@@H](C)O)C(=O)N[C@@H](Cc1c[nH]cn1)C(=O)N1CCC[C@H]1C(=O)N[C@@H](CCCCN)C(=O)N[C@@H](CC(C)C)C(=O)N[C@H](C(=O)N[C@@H](C)C(N)=O)CSCCC3=O [BCY15103, A-(SEQ ID NO: 5)-A] (H-ACLLHDHCPNTHPKLCA-NH2; linker 2-8-16 via TATA) | 1660 ± 544 |
| CC[C@H](C)[C@@H]1NC(=O)CNC(=O)[C@H](Cc2c[nH]c3ccccc23)NC(=O)[C@H](C(C)C)NC(=O)[C@@H]2CSCCC(=O)N3CN(CN(C3)C(=O)CCSC[C@@H](C(=O)N[C@@H](C)C(N)=O)NC1=O)C(=O)CCSC[C@H](NC(=O)[C@H](C)N)C(=O)N[C@@H](CC(=O)O)C(=O)N[C@@H](CC(C)C)C(=O)N[C@@H]([C@@H](C)O)C(=O)N[C@@H]([C@@H](C)O)C(=O)N[C@@H](Cc1c[nH]cn1)C(=O)N[C@@H](CC(N)=O)C(=O)N2 [BCY18285, A-(SEQ ID NO: 128)-A] (H-ACDLTTHNCVWGICA-NH2; linker 2-9-14 via TATA; N-terminus and C-terminus assumed) | 3760 |
| CC(C)C[C@@H]1NC(=O)[C@H](CC(=O)O)NC(=O)[C@@H](NC(=O)[C@H](C)N)CSCCC(=O)N2CN3CN(C2)C(=O)CCSC[C@H](NC(=O)[C@H](CC(N)=O)NC(=O)[C@H](Cc2c[nH]cn2)NC(=O)[C@H]([C@@H](C)O)NC(=O)[C@H]([C@@H](C)O)NC1=O)C(=O)N[C@@H](CCC(N)=O)C(=O)N[C@@H](Cc1c[nH]c2ccccc12)C(=O)NCC(=O)N[C@@H](C)C(=O)N[C@H](C(=O)N[C@@H](C)C(N)=O)CSCCC3=O [BCY18272, A-(SEQ ID NO: 120)-A] (H-ACDLTTHNCQWGACA-NH2; linker 2-9-14 via TATA) | 3190 |

Results, then the compound that gave them:

| Kd [nM] | Compound |
| --- | --- |
| 1830 | CSCC[C@@H]1NC(=O)[C@@H]2CSCCC(=O)N3CN(CN(C3)C(=O)CCSC[C@@H](C(=O)N[C@@H](C)C(N)=O)NC(=O)[C@H](C(C)C)NC(=O)[C@H](CCCCN)NC(=O)CNC(=O)[C@H]([C@@H](C)O)NC(=O)[C@H](CCC(N)=O)NC1=O)C(=O)CCSC[C@H](NC(=O)[C@H](C)N)C(=O)N[C@@H](CC(N)=O)C(=O)N[C@@H](CC(C)C)C(=O)N[C@@H](CCC(N)=O)C(=O)N[C@@H](CCC(N)=O)C(=O)N[C@@H](C)C(=O)N2 [BCY19713, A-(SEQ ID NO: 102)-A] (H-ACNLQQACMQTGKVCA-NH2; linker 2-8-15 via TATA; N-terminus assumed) |
| 4030 | CSCC[C@@H]1NC(=O)[C@@H]2CSCCC(=O)N3CN(CN(C3)C(=O)CCSC[C@@H](C(=O)N[C@@H](C)C(N)=O)NC(=O)[C@H](C(C)C)NC(=O)[C@H](CCCCN)NC(=O)CNC(=O)[C@H]([C@@H](C)O)NC(=O)[C@H](C)NC1=O)C(=O)CCSC[C@H](NC(=O)[C@H](C)N)C(=O)N[C@@H](CC(N)=O)C(=O)N[C@@H](CC(C)C)C(=O)N[C@@H](CCC(N)=O)C(=O)N[C@@H](C)C(=O)N1CCC[C@H]1C(=O)N2 [BCY18301, A-(SEQ ID NO: 65)-A] (H-ACNLQAPCMATGKVCA-NH2; linker 2-8-15 via TATA; C-terminus assumed) |
| 2750 | CSCC[C@@H]1NC(=O)[C@@H]2CSCCC(=O)N3CN(CN(C3)C(=O)CCSC[C@@H](C(=O)N[C@@H](C)C(N)=O)NC(=O)[C@H](C(C)C)NC(=O)[C@H](CCCCN)NC(=O)[C@H](C)NC(=O)[C@H]([C@@H](C)O)NC(=O)[C@H](CC(C)C)NC1=O)C(=O)CCSC[C@H](NC(=O)[C@H](C)N)C(=O)N[C@@H](CC(N)=O)C(=O)N[C@@H](CC(C)C)C(=O)N[C@@H](CCC(N)=O)C(=O)N[C@@H](C)C(=O)N1CCC[C@H]1C(=O)N2 [BCY18303, A-(SEQ ID NO: 67)-A] (H-ACNLQAPCMLTAKVCA-NH2; linker 2-8-15 via TATA) |
| 2270 | CC[C@H](C)[C@@H]1NC(=O)CNC(=O)[C@H](Cc2c[nH]c3c(C)cccc23)NC(=O)[C@H](CCC(N)=O)NC(=O)[C@@H]2CSCCC(=O)N3CN(CN(C3)C(=O)CCSC[C@@H](C(=O)N[C@@H](C)C(N)=O)NC1=O)C(=O)CCSC[C@H](NC(=O)[C@H](C)N)C(=O)N[C@@H](CC(=O)O)C(=O)N[C@@H](CC(C)C)C(=O)N[C@@H]([C@@H](C)O)C(=O)N[C@@H]([C@@H](C)O)C(=O)N[C@@H](Cc1c[nH]cn1)C(=O)N[C@@H](CC(N)=O)C(=O)N2 [BCY19723, A-(SEQ ID NO: 161)-A] |
| 44 | CC(C)C[C@@H]1NC(=O)[C@H](Cc2ccc(O)cc2)NC(=O)[C@H](CC(=O)O)NC(=O)[C@@H]2CCCN2C(=O)[C@H](CC(C)C)NC(=O)[C@H](Cc2ccc(O)cc2)NC(=O)[C@@H](NC(=O)[C@H](C)N)CSCCC(=O)N2CN3CN(C2)C(=O)CCSC[C@@H](C(=O)N[C@@H](C)C(N)=O)NC(=O)[C@H](Cc2ccc(O)c(C(C)(C)C)c2)NC(=O)[C@H](CCC(=O)O)NC(=O)[C@H](CC(=O)O)NC(=O)CNC(=O)[C@H](CSCCC3=O)NC1=O [BCY15652, A-(SEQ ID NO: 109)-A] |
| 3730 | CSCC[C@@H]1NC(=O)[C@@H]2CSCCC(=O)N3CN(CN(C3)C(=O)CCSC[C@H](NC(=O)[C@@H](N)CN)C(=O)N[C@@H](CC(N)=O)C(=O)N[C@@H](CC(C)C)C(=O)N[C@@H](CCC(N)=O)C(=O)N[C@@H](C)C(=O)N3CCC[C@H]3C(=O)N2)C(=O)CCSC[C@@H](C(=O)N[C@@H](C)C(N)=O)NC(=O)[C@H](C(C)C)NC(=O)[C@H](CCCCN)NC(=O)CNC(=O)[C@H]([C@@H](C)O)NC(=O)[C@H](CC(C)C)NC1=O [BCY19697, Dap-(SEQ ID NO: 4)-A] (H-[Dap]CNLQAPCMLTGKVCA-NH2; linker 2-8-15 via TATA) |
| 17 | CC(=O)N[C@@H]1CSCCC(=O)N2CN3CN(C2)C(=O)CCSC[C@H](NC(=O)[C@H](CC(C)C)NC(=O)[C@H](Cc2ccc(O)cc2)NC(=O)[C@H](CC(=O)O)NC(=O)[C@@H]2CCCN2C(=O)[C@H](CC2CCC2)NC(=O)[C@H](Cc2ccc(O)cc2)NC1=O)C(=O)N[C@H](C)C(=O)N[C@@H](CC(=O)O)C(=O)N[C@@H](CCC(=O)O)C(=O)N[C@@H](Cc1ccc(O)cc1)C(=O)N[C@H](C(N)=O)CSCCC3=O [BCY19693, Ac-(SEQ ID NO: 157)] (Ac-[dC]Y[Cba]PDYLC[dA]DEYC-NH2; linker 1-8-13 via TATA; C-terminus assumed) |

Biological target: CD16a (F Variant) (Homo sapiens, UniProt P08637)
Assay: FcγRIII (CD16a) SPR (Method A and/or Method B), F variant
Assay type: binding
Details: not given

| Compound | Kd [nM] |
| --- | --- |
| C[C@H](N)C(=O)N[C@H]1CSCc2nc3nc(n2)CSC[C@H](NC(=O)[C@@H]2CCCN2C(=O)[C@H](CCC(=O)O)NC(=O)[C@H](CO)NC(=O)[C@@H]2CCN2C(=O)[C@H](Cc2c[nH]cn2)NC(=O)[C@H](Cc2c[nH]c4ccccc24)NC(=O)[C@H](CCCNC(=N)N)NC1=O)C(=O)NCC(=O)N[C@@H](C)C(=O)N[C@@H](Cc1c[nH]c2ccccc12)C(=O)N[C@H](C(=O)N[C@@H](C)C(N)=O)CSC3 [BCY20382, A-(SEQ ID NO: 227)-A] | 385 |

Biological target: CD16a (V Variant) (Homo sapiens, UniProt P08637, F176V)
Assay: FcγRIII (CD16a) SPR (Method A and/or Method B), V variant
Assay type: binding
Details: not given

Sequence of CD16a (V Variant) (P08637 17-208 F176V): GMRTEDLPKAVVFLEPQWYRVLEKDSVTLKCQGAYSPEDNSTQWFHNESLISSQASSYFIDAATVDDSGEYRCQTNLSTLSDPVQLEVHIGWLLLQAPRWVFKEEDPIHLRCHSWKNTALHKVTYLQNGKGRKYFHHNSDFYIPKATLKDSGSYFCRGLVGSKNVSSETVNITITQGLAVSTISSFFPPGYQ

| Compound | Kd [nM] |
| --- | --- |
| C[C@H](N)C(=O)N[C@H]1CSCc2nc3nc(n2)CSC[C@H](NC(=O)[C@@H]2CCCN2C(=O)[C@H](CCC(=O)O)NC(=O)[C@H](CO)NC(=O)[C@H](Cc2ccccc2)NC(=O)[C@H](Cc2c[nH]cn2)NC(=O)[C@H](Cc2c[nH]c4ccccc24)NC(=O)[C@H](CCCNC(=N)N)NC1=O)C(=O)N[C@H](C)C(=O)N[C@@H](C)C(=O)N[C@@H](Cc1c[nH]c2ccccc12)C(=O)N[C@H](C(=O)N[C@@H](C)C(N)=O)CSC3 [BCY20392, A-(SEQ ID NO: 235)-A] (H-ACRWHFSEPC[dA]AWCA-NH2; linker 2-10-14 via X1; C-terminus assumed) | 385 |
| CC(C)[C@@H]1NC(=O)[C@H](CO)NC(=O)[C@H](Cc2c[nH]c3ccccc23)NC(=O)[C@H](CCCNC(=N)N)NC(=O)[C@@H](NC(=O)[C@H](C)N)CSCc2nc3nc(n2)CSC[C@H](NC(=O)[C@@H]2CCCN2C(=O)[C@H](CC(=O)O)NC(=O)[C@H](CCC(=O)O)NC1=O)C(=O)N[C@H](C)C(=O)N[C@@H](C)C(=O)N[C@@H](Cc1c[nH]c2ccccc12)C(=O)N[C@H](C(=O)N[C@@H](C)C(N)=O)CSC3 [BCY14956, A-(SEQ ID NO: 178)-A] (H-ACRWSVEDPC[dA]AWCA-NH2; linker 2-10-14 via X1; N-terminus assumed) | 2150 |

Same assay, conditions: SPR Method A and/or B, Table 6B; read-out: Kd (nM) (V Variant)

| Kd [nM] | Compound |
| --- | --- |
| 1900 | CC(C)C[C@@H]1NC(=O)[C@@H]2CCCN2C(=O)[C@H](Cc2c[nH]cn2)NC(=O)[C@@H]2CSCCC(=O)N3CN(CN(C3)C(=O)CCSC[C@H](NC(=O)[C@H](C)N)C(=O)N3CCC[C@H]3C(=O)N3CCC[C@H]3C(=O)N[C@@H]([C@@H](C)O)C(=O)N[C@@H](C(C)C)C(=O)N[C@@H](Cc3ccc(O)cc3)C(=O)N2)C(=O)CCSC[C@@H](C(=O)N[C@@H](C)C(=O)N(C)CC(=O)N(C)CC(=O)N(C)CC(=O)N(C)CC(=O)N(C)CC(=O)N(C)CC(=O)N[C@@H](CCCCNC(=O)CCCC[C@@H]2SC[C@@H]3NC(=O)N[C@@H]32)C(N)=O)NC(=O)[C@H](CC(=O)O)NC1=O [BCY12621, A-(SEQ ID NO: 60)-A-[Sar6]-[KBiot]] |
